Experimental data taken from ChEMBL document CHEMBL3817819, “Development and application of ligand-based NMR screening assays for -butyrobetaine hydroxylase” (Medchemcomm, 2016).
Activity calls are given as the source filed them. The calls are words filed in the database; no cut-off is given here.

Columns and labels:
[1] = target: T1, Gamma-butyrobetaine dioxygenase (Pseudomonas sp. (strain AK-1)) (UniProt P80193); assay: Inhibition of 2OG binding to Pseudomonas sp. AK1 BBOX at 25 uM in presence of Mn2+ by 1H NMR GBB/2OG dual reporter displacement assay
T1 sequence (whole entry): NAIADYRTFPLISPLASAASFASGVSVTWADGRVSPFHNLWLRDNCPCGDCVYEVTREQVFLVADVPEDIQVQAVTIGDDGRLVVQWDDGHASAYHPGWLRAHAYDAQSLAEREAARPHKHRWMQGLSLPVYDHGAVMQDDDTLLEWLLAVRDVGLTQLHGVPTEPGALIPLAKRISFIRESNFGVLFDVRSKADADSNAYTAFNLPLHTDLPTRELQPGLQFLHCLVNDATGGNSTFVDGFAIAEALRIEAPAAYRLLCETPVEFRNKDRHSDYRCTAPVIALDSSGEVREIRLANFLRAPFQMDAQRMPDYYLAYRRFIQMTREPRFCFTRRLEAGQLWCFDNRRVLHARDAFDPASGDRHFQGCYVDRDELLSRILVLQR

[2] = target: T2, Gamma-butyrobetaine dioxygenase (Pseudomonas sp. (strain AK-1), UniProt P80193); assay: Inhibition of Pseudomonas sp. AK1 BBOX using GBBF as substrate after 10 mins in presence of 2OG and Fe2+ using TBS-protected fluorescein probe by fluoride release assay
T2 sequence (P80193 whole entry): T1 sequence (whole entry)

[3] = target: T2, Gamma-butyrobetaine dioxygenase; assay: Binding affinity to Pseudomonas sp. AK1 BBOX by intrinsic tryptophan fluorescence quenching assay
[4] = target: T2, Gamma-butyrobetaine dioxygenase; assay: Inhibition of Pseudomonas sp. AK1 BBOX assessed as hydroxylation of GBB to L-carnitine measured for 60 sec in presence of 2OG and Fe2+ by 1H NMR assay
[5] = target: T1, Gamma-butyrobetaine dioxygenase (Pseudomonas sp. (strain AK-1)); assay: Inhibition of GBB binding to Pseudomonas sp. AK1 BBOX at 25 uM in presence of Mn2+ by 1H NMR GBB/2OG dual reporter displacement assay
[6] = target: T3, Gamma-butyrobetaine dioxygenase (Homo sapiens, UniProt O75936); assay: Inhibition of human BBOX using GBBF as substrate in presence of 2OG and Fe2+ using TBS-protected fluorescein probe by fluoride release assay
T3 sequence (O75936 whole entry): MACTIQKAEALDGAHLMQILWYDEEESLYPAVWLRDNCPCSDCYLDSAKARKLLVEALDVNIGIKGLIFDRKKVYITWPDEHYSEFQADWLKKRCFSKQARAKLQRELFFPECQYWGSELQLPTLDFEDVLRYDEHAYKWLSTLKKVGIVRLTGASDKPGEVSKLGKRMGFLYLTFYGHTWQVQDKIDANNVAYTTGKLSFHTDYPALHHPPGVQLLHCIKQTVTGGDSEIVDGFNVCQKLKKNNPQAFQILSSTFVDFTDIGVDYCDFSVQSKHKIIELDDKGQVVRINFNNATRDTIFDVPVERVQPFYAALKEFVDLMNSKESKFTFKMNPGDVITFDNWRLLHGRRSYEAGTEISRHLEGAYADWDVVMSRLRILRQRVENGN

[7] = target: T1, Gamma-butyrobetaine dioxygenase (Pseudomonas sp. (strain AK-1)); assay: Induction of GBB binding to Pseudomonas sp. AK1 BBOX at 25 uM in presence of Mn2+ by 1H NMR GBB/2OG dual reporter displacement assay

Compound | inhibition [1] | IC50 [2] [µM] | Kd [3] [µM] | IC50 [4] [µM] | inhibition [5] | IC50 [6] [µM] | Activity [7]
CC(C)C[C@H](NC(=O)c1nc(Cl)c2ccccc2c1O)C(=O)O | Active | 125 | 55 | 26 | Active |  | 
CC(C)C[C@@H](NC(=O)c1nc(Cl)c2ccccc2c1O)C(=O)O | inactive | > 1000 | 103 | 94 | inactive |  | 
O=C(N[C@H](Cc1c[nH]c2ccccc12)C(=O)O)c1nc(Cl)c2ccccc2c1O |  | > 1000 | 168 | 18 |  | 33 | 
O=C(O)CNC(=O)c1nc(Cl)c2ccccc2c1O | Active | 1.2 | 22 | 0.21 | inactive |  | Active
O=C(O)C[C@@H](NC(=O)c1nc(Cl)c2ccccc2c1O)C(=O)O |  | 160 | 101 | 38 |  |  | 
CC(C)[C@@H](NC(=O)c1nc(Cl)c2ccccc2c1O)C(=O)O | inactive | > 1000 | 144 | 191 | inactive |  | 
CC(C)[C@H](NC(=O)c1nc(Cl)c2ccccc2c1O)C(=O)O | Active | 130 | 55 | 23 | Active |  | 
O=C(O)CC[C@@H](NC(=O)c1nc(Cl)c2ccccc2c1O)C(=O)O | inactive | > 1000 | 89 | 86 | inactive |  | 
O=C(N[C@H](Cc1ccccc1)C(=O)O)c1nc(Cl)c2ccccc2c1O |  | 101 | 82 | 38 |  |  | 
O=C(N[C@@H](Cc1ccccc1)C(=O)O)c1nc(Cl)c2ccccc2c1O | Active | 13 | 26 | 1 | Active |  | 
O=C(O)CC[C@H](NC(=O)c1nc(Cl)c2ccccc2c1O)C(=O)O |  | 147 | 64 | 22 |  |  | 
O=C(O)C[C@H](NC(=O)c1nc(Cl)c2ccccc2c1O)C(=O)O | Active | 245 | 91 | 76 | inactive |  | 
O=C(N[C@@H](Cc1c[nH]c2ccccc12)C(=O)O)c1nc(Cl)c2ccccc2c1O | Active | 26 | 29 | 0.9 | Active | 11 | 
